# According to publication PMC8609519, “Potent Inhibitor of Human Trypsins from the Aeruginosin Family of Natural Products” (ACS Chemical Biology, 2021):
# “Also recorded” adds a separate entry of the source.
# Experiments:
# [1] = system: all three human trypsins; set-up: method as in PMID 28463992; settings: equally inhibits all three human trypsins; cited from earlier work
# [2] = target: T1, human plasma kallikrein (Homo sapiens, UniProt P03952); assay: Serine protease inhibition, chromogenic substrate S-2302; format: biochemical; settings: read-out: IC50, human plasma kallikrein
# T1 construct: purchased Sigma
# T1 sequence (P03952 391-638 limits assumed): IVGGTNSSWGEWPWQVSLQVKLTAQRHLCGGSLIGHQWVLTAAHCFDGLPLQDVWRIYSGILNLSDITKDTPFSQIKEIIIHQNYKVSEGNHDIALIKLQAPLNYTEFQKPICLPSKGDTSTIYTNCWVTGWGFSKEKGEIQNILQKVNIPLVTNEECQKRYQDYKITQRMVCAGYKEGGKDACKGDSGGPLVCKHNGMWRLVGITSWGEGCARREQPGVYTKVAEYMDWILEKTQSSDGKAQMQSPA
# T1 sequence (P03952 20-390 partner limits assumed): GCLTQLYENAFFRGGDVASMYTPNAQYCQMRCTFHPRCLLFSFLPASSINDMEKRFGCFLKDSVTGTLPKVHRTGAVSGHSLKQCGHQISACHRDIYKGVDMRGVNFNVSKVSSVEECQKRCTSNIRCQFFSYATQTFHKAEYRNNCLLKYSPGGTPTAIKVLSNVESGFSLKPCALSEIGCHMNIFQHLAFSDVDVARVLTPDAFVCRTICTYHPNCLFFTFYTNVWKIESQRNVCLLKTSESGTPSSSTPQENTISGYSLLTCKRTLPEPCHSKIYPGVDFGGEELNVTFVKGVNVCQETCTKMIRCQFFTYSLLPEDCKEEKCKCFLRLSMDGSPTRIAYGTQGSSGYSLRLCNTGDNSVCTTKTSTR
# Method: (§1) Recombinant trypsinogens-1, -2, and -3 were produced inEscherichia coliand activated to trypsin-1, -2, and -3 as described previously.[45] The enzyme inhibitory activity of suomilide was determined in 96-well plates by adding 10 μL of diluted suomilide (0.21–3400 nM, diluted in ultra-purified water, containing up to 0.027% DMSO), 15 μL of 0.1% bovine serum albumin in 50 mM Tris-buffer saline (BSA/TBS), and 25 μL of each trypsin (1.88 nM). 10 μL of ultra-purified water was used as a control. […] Preincubation of suomilide with trypsin isoenzymes prior to the addition of the substrate was required for maximal inhibition (data not shown). Thus, suomilide was preincubated with trypsins at room temperature for 30 min before the addition of 50 μL of 0.2 mM chromogenic substrate S-2222 (ChromogeniX) in ultra-purified water. The change of absorbance at 405 nm was followed for 15 min (VICTOR X4 multilabel plate reader, PerkinElmer). The experiment was performed three times, each with two replicates (n = 3). The absorbance change during the phase of the substrate reaction in which the absorbance of the control reaction increased linearly over time was determined. […] The IC50 values were estimated using Quest Graph, and the standard error was calculated using MS Excel 2013.
# [3] = system: PC-3M prostate cancer cells; assay: Cell proliferation assay (CCK-8); format: cell-based, human; settings: 3.3 μM, 3 days, cells on plastic surface
# Method: (§2) PC-3M prostate cancer cells[46] were cultured in Ham’s F12 Nutrient Mix with GlutaMAX (Gibco), supplemented with 10% fetal calf serum (FCS), 100 IU mL^–1 penicillin, 100 μg mL^–1 streptomycin, and 0.15% sodium bicarbonate at 37 °C in a humidified, CO2-controlled (5%) incubator. For the invasion assay, PC-3M cells (1.45 × 10^5) in a serum-free medium containing 0 or 3.3 μM suomilide were added into polycarbonate membrane Transwell inserts with 8.0 μm pore size (Thermo Fisher) covered with 100 μL of the phenol red-free Matrigel basement membrane matrix (Corning) diluted 1:30 with phosphate-buffered saline. The inserts were placed into a 24-well plate containing 750 μL of the culture medium with 10% FCS and incubated for 4 days at 37 °C in a humidified, CO2-controlled (5%) incubator. Matrigel and the noninvasive cells were removed using cotton swabs, and the membranes were stained with 0.09% crystal violet for 10 min. The experiment was performed twice, both with four replicates (n = 2). The invasion was quantitated from microscopic images (three panels from each of the replicates) using Fiji ImageJ. […] After 3 days, 10 μL/well CCK-8 solution (Cell Counting Kit-8, Dojindo) was added, and absorbance at 450 nm was measured after 1.5 h incubation. […]
# [4] = target: T2, human urokinase (Homo sapiens, UniProt P00749); assay: Serine protease inhibition, urokinase from human kidney cells; format: biochemical; settings: read-out: IC50, human urokinase
# T2 construct: purchased Sigma; host or cells: human kidney cells
# Method: as §1
# [5] = system: plasmin; set-up: method as in doi:10.1016/s0040-4039(97)01193-3; settings: cited from earlier work
# [6] = system: thrombin; set-up: method as in doi:10.1016/s0040-4039(97)01193-3; settings: cited from earlier work
# [7] = target: T3, human plasmin (Homo sapiens, UniProt P00747); assay: Serine protease inhibition, chromogenic substrate S-2251; format: biochemical; settings: read-out: IC50, human plasmin
# T3 construct: purchased Sigma
# T3 sequence (P00747 581-810 limits assumed): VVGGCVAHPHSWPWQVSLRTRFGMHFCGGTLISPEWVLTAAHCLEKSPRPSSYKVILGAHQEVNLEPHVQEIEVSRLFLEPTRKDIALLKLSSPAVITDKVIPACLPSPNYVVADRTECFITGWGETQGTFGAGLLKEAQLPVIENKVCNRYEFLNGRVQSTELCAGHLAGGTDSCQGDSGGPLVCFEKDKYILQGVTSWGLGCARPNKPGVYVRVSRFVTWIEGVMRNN
# T3 sequence (P00747 97-580 partner limits assumed): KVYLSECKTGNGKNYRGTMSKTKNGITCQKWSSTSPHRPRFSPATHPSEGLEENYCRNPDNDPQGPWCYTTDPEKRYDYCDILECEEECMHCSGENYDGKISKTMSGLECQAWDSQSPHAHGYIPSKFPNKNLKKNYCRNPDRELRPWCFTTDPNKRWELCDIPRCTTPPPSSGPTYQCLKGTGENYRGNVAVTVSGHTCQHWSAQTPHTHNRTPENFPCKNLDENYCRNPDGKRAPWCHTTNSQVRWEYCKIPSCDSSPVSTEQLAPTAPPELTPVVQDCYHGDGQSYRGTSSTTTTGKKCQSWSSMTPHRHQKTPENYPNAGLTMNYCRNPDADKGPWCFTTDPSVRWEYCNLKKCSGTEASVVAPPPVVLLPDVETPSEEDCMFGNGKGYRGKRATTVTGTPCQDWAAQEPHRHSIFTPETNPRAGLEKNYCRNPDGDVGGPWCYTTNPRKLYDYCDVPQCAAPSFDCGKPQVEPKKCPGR
# Method: as §1
# [8] = system: unspecified but most likely non-human trypsin isoenzyme; set-up: method as in doi:10.1016/s0040-4039(97)01193-3; settings: cited from earlier work
# [9] = target: T4, human thrombin (Homo sapiens, UniProt P00734); assay: Serine protease inhibition, chromogenic substrate S-2238; format: biochemical; settings: read-out: IC50, human thrombin, highest final concentration 12.5 μM
# T4 construct: purchased Sigma
# Method: as §1
# [10] = system: PC-3M prostate cancer cells; assay: Transwell cell invasion assay through Matrigel; format: cell-based, human; settings: 3.3 μM, 4 days, Transwell with Matrigel
# Method: as §2
# [11] = target: T5, trypsin-1 (Homo sapiens, UniProt P07477); assay: Surface plasmon resonance (Biacore) kinetic analysis; format: binding; settings: SPR
# T5 construct: made in house; host or cells: Escherichia coli
# Method: (§3) The binding of suomilide to trypsin-1 and -3 was analyzed with surface plasmon resonance in Biacore 2000 instrumentation (Cytiva). […] The binding was analyzed using Tris-buffered saline (pH 7.4) containing 0.01% DMSO as the running buffer and a flow rate of 30 μL min^–1. The kinetics of the suomilide interaction with the trypsins were measured by varying suomilide concentrations from 250 to 4000 nM with a contact time of 5 min and a dissociation phase of 20 min. After the completion of the dissociation phase, the flow cells were regenerated with 10 mM Glycine, pH 1.7. The data were evaluated by first subtracting the sensorgrams obtained from the trypsin-3 mutant control flow cell from those obtained from the flow cells containing trypsin-1 or -3 for each suomilide concentration separately and overlaying the resulting sensorgrams for each ligand. Association and dissociation rate constants were obtained by the Langmuir global fit model (BiaEvaluation Software, Cytiva). The residence time was calculated as a reciprocal of the […].
# [12] = target: T6, trypsin-3 (Homo sapiens, UniProt P35030); assay: as above; format: binding; settings: SPR
# T6 construct: made in house; host or cells: Escherichia coli
# T6 sequence (P35030 81-304 limits assumed): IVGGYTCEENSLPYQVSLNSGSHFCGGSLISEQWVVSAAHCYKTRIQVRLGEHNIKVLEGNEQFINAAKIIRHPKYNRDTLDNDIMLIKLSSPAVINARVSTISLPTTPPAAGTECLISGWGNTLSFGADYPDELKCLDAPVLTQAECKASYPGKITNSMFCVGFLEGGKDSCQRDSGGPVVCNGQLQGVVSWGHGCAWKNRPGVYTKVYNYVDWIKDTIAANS
# Method: as §3
# [13] = target: T7, human Factor Xa (Homo sapiens, UniProt P00742); assay: Serine protease inhibition, chromogenic substrate S-2222; format: biochemical; settings: read-out: IC50, human Factor Xa
# T7 construct: purchased Sigma
# T7 sequence (P00742 235-488 limits assumed): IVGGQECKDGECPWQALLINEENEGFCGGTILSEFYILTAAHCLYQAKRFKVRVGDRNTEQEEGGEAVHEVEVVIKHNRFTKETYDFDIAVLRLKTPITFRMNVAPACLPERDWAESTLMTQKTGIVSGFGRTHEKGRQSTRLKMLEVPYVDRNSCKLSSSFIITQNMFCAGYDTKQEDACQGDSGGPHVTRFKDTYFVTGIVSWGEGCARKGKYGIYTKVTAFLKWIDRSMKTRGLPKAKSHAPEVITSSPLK
# T7 sequence (P00742 41-179 partner limits assumed): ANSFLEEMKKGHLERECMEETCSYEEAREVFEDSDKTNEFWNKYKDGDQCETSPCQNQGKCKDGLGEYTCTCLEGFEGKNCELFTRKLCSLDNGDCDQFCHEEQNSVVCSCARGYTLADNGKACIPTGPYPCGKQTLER
# Method: (§4) Recombinant trypsinogens-1, -2, and -3 were produced inEscherichia coliand activated to trypsin-1, -2, and -3 as described previously.[45] The enzyme inhibitory activity of suomilide was determined in 96-well plates by adding 10 μL of diluted suomilide (0.21–3400 nM, diluted in ultra-purified water, containing up to 0.027% DMSO), 15 μL of 0.1% bovine serum albumin in 50 mM Tris-buffer saline (BSA/TBS), and 25 μL of each trypsin (1.88 nM). 10 μL of ultra-purified water was used as a control. […] Preincubation of suomilide with trypsin isoenzymes prior to the addition of the substrate was required for maximal inhibition (data not shown). Thus, suomilide was preincubated with trypsins at room temperature for 30 min before the addition of 50 μL of 0.2 mM chromogenic substrate S-2222 (ChromogeniX) in ultra-purified water. The change of absorbance at 405 nm was followed for 15 min (VICTOR X4 multilabel plate reader, PerkinElmer). The experiment was performed three times, each with two replicates (n = 3). The absorbance change during the phase of the substrate reaction in which the absorbance of the control reaction increased linearly over time was determined. The same experiment was performed with plasmin (Sigma) (15 nM) with chromogenic substrate S-2251 (ChromogeniX); plasma KLK (Sigma) (20 nM) with substrate ChromogeniX S-2302 (ChromogeniX); Factor Xa (Sigma) (3 nM) with substrate S-2222; and thrombin (Sigma) (1 nM) with substrate S-2238 (ChromogeniX). Except for urokinase from human kidney cells (Sigma) (125 IU), 15 μL of BSA/TBS with 0.9% NaCl was used. Nine 4-fold dilutions of suomilide were prepared, with 12.5 μM being the highest final concentration. The IC50 values were estimated using Quest Graph, and the standard error was calculated using MS Excel 2013.
# [14] = target: T5, trypsin-1; assay: as above; format: biochemical; settings: read-out: IC50, trypsin-1; 30 min preincubation, substrate S-2222, n = 3
# Method: as §4
# [15] = target: T8, recombinant human trypsin-2 (Homo sapiens, UniProt P07478); assay: as above; format: biochemical; settings: read-out: IC50, trypsin-2; 30 min preincubation, substrate S-2222, n = 3
# T8 construct: made in house; host or cells: Escherichia coli
# T8 sequence (P07478 24-247): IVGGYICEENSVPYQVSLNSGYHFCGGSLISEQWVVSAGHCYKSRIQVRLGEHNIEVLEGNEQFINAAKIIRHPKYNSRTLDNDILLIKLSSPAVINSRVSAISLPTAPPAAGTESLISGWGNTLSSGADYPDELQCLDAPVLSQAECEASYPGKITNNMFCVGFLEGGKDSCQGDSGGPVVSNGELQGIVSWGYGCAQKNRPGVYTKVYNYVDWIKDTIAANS
# Method: as §4
# [16] = target: T6, trypsin-3; assay: as above; format: biochemical; settings: read-out: IC50, trypsin-3; 30 min preincubation, substrate S-2222, n = 3
# Method: as §4
smiles,measurement,setting,value
N=C(N)c1ccc(/N=N/Nc2ccc(C(=N)N)cc2)cc1 [diminazene],inhibition of human trypsins (concentration range),[1],micromolar concentrations
CCCCCC(=O)OCC1OC(OC2CC3C(O)C4(C2)OC(=O)NC4C(C(=O)NCCC2=CCN(C(=N)N)C2)N3C(=O)C(NC(=O)C(COS(=O)(=O)O)OC)C(C)CC)C(OC(=O)CCCCC)C(O)C1O (stereo not drawn) [suomilide],IC50,[2],82 ± 24 nM
same,effect on PC-3M cell proliferation,[3],without affecting cell proliferation; also recorded: did not affect
same,IC50,[4],7100 ± 1360 nM
same,inhibition of plasmin (concentration range),[5],low micromolar concentrations
same,inhibition of thrombin (concentration range),[6],low micromolar concentrations
same,IC50,[7],7.6 ± 2.3 nM
same,inhibition of trypsin (concentration range),[8],low micromolar concentrations
same,IC50,"[8]; unspecified, most likely non-human trypsin",1800 nM
same,IC50,[9],> 12500 nM
same,effect on PC-3M cell invasion,[10],inhibited the invasion; also recorded: significantly inhibited
same,kon,"[11]; immobilized trypsin-1, Langmuir global fit, read-out: ka (association rate constant), trypsin-1",33000 M⁻¹ s⁻¹
same,koff,"[11]; immobilized trypsin-1, Langmuir global fit, read-out: kd (dissociation rate constant), trypsin-1",0.011 s⁻¹
same,residence time,"[11]; calculated as reciprocal of the dissociation constant, read-out: residence time (τ), trypsin-1",1.5 min
same,kon,"[12]; immobilized trypsin-3, Langmuir global fit, read-out: ka (association rate constant), trypsin-3",12000 M⁻¹ s⁻¹
same,koff,"[12]; immobilized trypsin-3, Langmuir global fit, read-out: kd (dissociation rate constant), trypsin-3",0.00029 s⁻¹
same,residence time,"[12]; calculated as reciprocal of the dissociation constant, read-out: residence time (τ), trypsin-3",57 min
same,IC50,[13],114 ± 2 nM
same,IC50,[14],104 nM
same,IC50,[15],4.7 nM
same,IC50,[16],11.5 nM
